Measured values as given in patent publication US4562275A, “Antitumor platinum complexes” (priority 1984, dated 1985).
“And” between values parts separate entries of the source, which are not always exact repeats. Equal entries are not always repeated.

Experiments:
L1210 leukemia = test: Antitumor activity vs transplantable L1210 leukemia (ip) in mice; format: in vivo, mouse; conditions: for Max % T/C: dying mice only; for OD (optimum dose): optimum dose from the L1210 test
Text: The antitumor activities of the complexes provided by the present invention have been determined against L-1210 leukemia in the mouse and, for certain of the complexes, against other mouse tumor systems.
(§1) Results of antitumor testing against the transplantable mouse tumors L1210 leukemia, cisplatin-resistant L1210 leukemia, B16 melanoma, Madison 109 lung carcinoma and colon 26 carcinoma are shown below in Tables 1 and 2.
In Table 1 are shown the maximum % T/C values obtained for each platinum compound versus L1210 leukemia using both single and qd 1→5 dosing.
(§2) The methods used to evaluate the platinum complexes for antitumor activity and toxicity in animals are summarized below. These methods have been published elsewhere in more detail (Rose, et al. Cancer Treat. Rep. 66: 135, 1982; Florczyk, et al, Cancer Treat. Rep. 66: 187, 1982).
(§3) The parent line of L1210 leukemia (L1210) was maintained in DBA/2 mice by ip transplantation of 10^5 cells at weekly intervals. […] B16 malenoma (B16) was maintained by sc transplant in C57BL/6 mice every two weeks. Madison 109 lung carcinoma (M109) and colon 26 carcinoma (C26) were maintained by sc transplant in BALB/c mice every two weeks.
(§4) The level and route of tumor inoculum, host, group size, and drug treatment schedule and route for each tumor type are summarized below in Table 6. Each complex was evaluated initially against L1210 at 4 dose levels per schedule selected on the basis of lethality data provided by the Wadley Institute. In subsequent experiments with the other tumors the complexes were evaluated at a minimum of 3 dose levels selected on the basis of maximum tolerated levels in the L1210 experiments. Cisplatin-treated groups and a saline-treated (or untreated) tumor control group were included in each experiment.
(§5) The L1210 experiments were terminated on Day 30 whereas the B16, C26 and M109 experiments were terminated on Day 60 (some C26 experiments were terminated on Day 75). Mice alive at the termination day were autopsied and considered cured if no tumor was visible. […] A complex was considered active if it produced a % T/C value ≥125.

[1] = system: L1210/CDDP (cisplatin resistant line of L1210 leukemia); test: Antitumor activity vs cisplatin-resistant L1210 leukemia (L1210/CDDP) in mice; format: in vivo, mouse
Text: Results of antitumor testing against the transplantable mouse tumors L1210 leukemia, cisplatin-resistant L1210 leukemia, B16 melanoma, Madison 109 lung carcinoma and colon 26 carcinoma are shown below in Tables 1 and 2. […]
as §2, §3, §4, §5

B16 melanoma [2] = test: Antitumor activity vs ip B16 melanoma in mice; format: in vivo, mouse; design: O.D.: unit not given here; conditions: for O.D.: ip B16 (3×; 9×); for Max. % T/C: ip B16 (3×; 9×): q4d × 3 or qd 1-9, ip, dying mice only; for Ratio of Max. % T/C Complex/cDDP: ip B16, relative to concomitant cisplatin
Text: as §2, §3
The level and route of tumor inoculum, host, group size, and drug treatment schedule and route for each tumor type are summarized below in Table 6. Each complex was evaluated initially against L1210 at 4 dose levels per schedule selected on the basis of lethality data provided by the Wadley Institute.
as §5

C26 carcinoma = test: Antitumor activity vs ip C26 (colon 26) carcinoma in mice; format: in vivo, mouse; design: O.D.: unit not given here; conditions: for O.D.: ip C26 (2×; 4×); for Max. % T/C: ip C26 (2×; 4×): q3d × 2 or qd 1-4, ip, dying mice only
Text: as §1, §2, §3, §4, §5
8 q3d^b × 2 or qd 1-4, ip

M109 carcinoma = test: Antitumor activity vs ip M109 (Madison 109 lung) carcinoma in mice; format: in vivo, mouse; design: O.D.: unit not given here; conditions: for O.D.: ip M109 (2×; 4×); for Max. % T/C: ip M109 (2×; 4×): q3d × 2 or qd 1-4, ip, dying mice only
Text: as §1, §2, §3, §4, §5
8 q3d^a × 2 or qd 1-4, ip

B16 melanoma [3] = test: Antitumor activity vs B16 melanoma, sc tumor implant with iv drug dosing; format: in vivo, mouse
Text: ^b Sc tumor implant with iv drug dosing.
as §3, §4, §5

BDF1 mice [4] = test: Nephrotoxicity: effect on blood urea nitrogen (BUN) in BDF1 mice; conditions: for BUN↑, Mouse: effect relative to cisplatin
Method: The other compounds were in such short supply that they were tested for effects on BUN values using the optimum dose (O.D.) from the L1210 test for dose selection.
The toxicity studies were done in male BDF1 mice (25-29 gm) and castrated male Fitch ferrets (1-1.5 kg).
The complexes that were active against L1210 were evaluated for nephrotoxicity by determining their effects on blood urea nitrogen (BUN) levels in mice. Groups of 40-50 mice/experiment were bled from the retro-orbital plexus and individual BUN values determined by a modified urease method using a Centrifichem System 400. The test complex, or saline for controls, was given at several dose levels (5-10 mice/dose) in single ip injections. The highest dose of the complex usually corresponded to its LD50 value or 1.5 times its optimal single dose in the L1210 experiment. At least two lower doses were included to evaluate dose-related effects. The BUN values were measured 4 and 7 days after dosing. BUN values ≥30 mg% were considered indicative of drug-induced nephrotoxicity.

BDF1 mice [5] = test: Deaths (D.14) in the BUN test in BDF1 mice; format: in vivo, mouse
BDF1 mice [6] = test: Single-dose ip LD50 in BDF1 mice; format: in vivo, mouse; conditions: 30 days observation
Method: Single-dose ip LD50 values were determined in BDF1 mice for the indicated complexes.

Solubility (Table 3) = conditions: medium not given
[7] = Solubility stated in the preparation examples
[8] = L1210, Day 1, in intralipid plus ethanol
[9] = L1210, single dose Day 1, ip, (a), (b) determinations
[10] = L1210, single dose Day 1, ip, dose giving the Max % T/C, same order

Molecule	O.D. (optimal dose) (L1210 leukemia; L1210, QD 1 → 5, ip)	Max % T/C (L1210 leukemia; L1210, QD 1 → 5, ip)	Max % T/C (L1210 leukemia; [9])	O.D. (optimal dose) (L1210 leukemia; [10])	OD (optimum dose) (L1210 leukemia)	O.D. (B16 melanoma [2])	Max. % T/C (B16 melanoma [2])	O.D. (C26 carcinoma)	Max. % T/C (C26 carcinoma)	O.D. (M109 carcinoma)	Max. % T/C (M109 carcinoma)	BUN↑, Mouse (BDF1 mice [4])	Ratio of Max. % T/C Complex/cDDP (B16 melanoma [2])	LD50 (BDF1 mice [6])	Solubility (Solubility (Table 3))	Solubility in water [7]	other results
N[C@@H]1CCCC[C@H]1N.O=C([O-])C(F)(F)C(F)(F)C(F)(F)F.O=C([O-])C(F)(F)C(F)(F)C(F)(F)F.[Pt+2] (relative stereo) [Example 3, bis-heptafluorobutyrato trans(-)-1,2-diaminocyclohexane platinum(II)]	3 mg/kg/inj	186%	157%	48 mg/kg/inj	24 mg/kg/ip	1	182%	16	119%	12 and 8	118% and 103%	0	–	–	–	–	O.D. (optimal dose) (L1210 leukemia; [8]): 24 mg/kg/inj and 18 mg/kg/inj; Max % T/C (L1210 leukemia; [8]): 214% and 200%; Cures/total (L1210 leukemia; L1210, QD 1 → 5, ip): 2/6; O.D. (optimal dose) ([1]; Day 1, in intralipid plus ethanol): 12 mg/kg/inj; Max % T/C ([1]; Day 1, in intralipid plus ethanol, dying mice only): 195%; O.D. (B16 melanoma [3]): 4; Max. % T/C (B16 melanoma [3]; dying mice only): 164%; Incidence of BUN > 30 mg % (BDF1 mice [4]; 24 mg/kg ip): 0/3; Incidence of BUN > 30 mg % (BDF1 mice [4]; 36 mg/kg ip): 0/2; Deaths D.14 (BDF1 mice [5]; 24 mg/kg ip): 2/5; Deaths D.14 (BDF1 mice [5]; 36 mg/kg ip): 3/5
NCC1(N)CCCCCCC1.O=C([O-])CP(=O)([O-])[O-].[H+].[Pt+2] [Example 15, phosphonoacetato 1-aminomethylcyclooctylamine platinum(II)]	10 mg/kg/inj	193%	236%	80 mg/kg/inj	80 mg/kg/ip	3	147%	–	–	–	–	<	.77	137 mg/kg/ip	7000 µg/mL	very water-soluble	Incidence of BUN > 30 mg % (BDF1 mice [4]; 77 mg/kg ip): 0/10; Incidence of BUN > 30 mg % (BDF1 mice [4]; 103 mg/kg ip): 2/10; Incidence of BUN > 30 mg % (BDF1 mice [4]; 137 mg/kg ip): 7/10; Deaths D.14 (BDF1 mice [5]; 77 mg/kg ip): 0/10; Deaths D.14 (BDF1 mice [5]; 103 mg/kg ip): 3/10; Deaths D.14 (BDF1 mice [5]; 137 mg/kg ip): 9/10
hydroxymethylphosphonato trans(-)-1,2-diaminocyclohexane platinum(II) [Example 12]	3 mg/kg/inj	293%	221% and 275%	24 mg/kg/inj and 21 mg/kg/inj	24 mg/kg/ip	4	229%	24	125%	18	135%	0	1.08	79 mg/kg/ip	3000 µg/mL	soluble	Cures/total ([1]; Day 1): 2/6; O.D. (optimal dose) ([1]; Day 1): 14 mg/kg/inj; Max % T/C ([1]; Day 1, dying mice only): 340%; Ratio of Max. % T/C Complex/cDDP (C26 carcinoma; ip C26, relative to concomitant cisplatin): .87; Ratio of Max. % T/C Complex/cDDP (M109 carcinoma; ip M109, relative to concomitant cisplatin): .95; Incidence of BUN > 30 mg % (BDF1 mice [4]; 44 mg/kg ip): 1/6; Incidence of BUN > 30 mg % (BDF1 mice [4]; 59 mg/kg ip): 0/4; Deaths D.14 (BDF1 mice [5]; 44 mg/kg ip): 6/10; Deaths D.14 (BDF1 mice [5]; 59 mg/kg ip): 9/10; Deaths D.14 (BDF1 mice [5]; 79 mg/kg ip): 10/10; Solubility in methanol ([7]; methanol): soluble
